Assay results from ChEMBL document CHEMBL4402511, “Development of covalent antagonists for β1- and β2-adrenergic receptors” (Bioorg Med Chem, 2019).

Legend:
[1] = Selectivity index, ratio of Ki for displacement of [3H]CGP12177 from human beta2 adrenoceptor expressed in CHO cell membranes to Ki for displacement of [3H]CGP12177 from mouse beta1 adrenoceptor expressed in HEK293T cell membranes
[2] = target: Beta-1 adrenergic receptor (Mus musculus, UniProt P34971); assay: Displacement of [3H]CGP12177 from mouse beta1 adrenoceptor expressed in HEK293T cell membranes
[3] = target: Beta-2 adrenergic receptor (Homo sapiens, UniProt P07550); assay: Displacement of [3H]CGP12177 from human beta2 adrenoceptor expressed in CHO cell membranes
[4] = (§1) Displacement of [3H]CGP12177 from human beta2 adrenoceptor H2.64C mutant expressed in HEK293T cell membranes
Homo sapiens [5] = species: Homo sapiens; assay: Covalent binding affinity to human beta2 adrenoceptor H2.64C mutant expressed in HEK293T cell membranes assessed as covalent blockage of binding site at 1 uM measured after 120 mins by [3H]CGP12177 binding based radioligand depletion assay relative to control
Mus musculus [6] = species: Mus musculus; assay: (§2) Displacement of [3H]CGP12177 from mouse beta1 adrenoceptor I2.64C mutant expressed in HEK293T cell membranes
Mus musculus [7] = species: Mus musculus; assay: Covalent binding affinity to mouse beta1 adrenoceptor I2.64C mutant expressed in HEK293T cell membranes assessed as covalent blockage of binding site at 1 uM measured after 120 mins by [3H]CGP12177 binding based radioligand depletion assay relative to control
Homo sapiens [8] = species: Homo sapiens; assay: as §1
Homo sapiens [9] = species: Homo sapiens; assay: Covalent binding affinity to human beta2 adrenoceptor H2.64C mutant expressed in HEK293T cell membranes assessed as covalent blockage of binding site at 5 nM measured after 30 mins by [3H]CGP12177 binding based radioligand depletion assay relative to control
Homo sapiens [10] = species: Homo sapiens; assay: Covalent binding affinity to human beta2 adrenoceptor H2.64C mutant expressed in HEK293T cell membranes assessed as covalent blockage of binding site at 5 nM measured within 15 mins by [3H]CGP12177 binding based radioligand depletion assay relative to control
Homo sapiens [11] = species: Homo sapiens; assay: Covalent binding affinity to human beta2 adrenoceptor H2.64C mutant expressed in HEK293T cell membranes assessed as covalent blockage of binding site at 50 nM measured after 90 mins by [3H]CGP12177 binding based radioligand depletion assay relative to control
Homo sapiens [12] = species: Homo sapiens; assay: Covalent binding affinity to human beta2 adrenoceptor H2.64C mutant expressed in HEK293T cell membranes assessed as covalent blockage of binding site at 50 nM measured after 15 mins by [3H]CGP12177 binding based radioligand depletion assay relative to control
[13] = as §2
Mus musculus [14] = species: Mus musculus; assay: Covalent binding affinity to mouse beta1 adrenoceptor I2.64C mutant expressed in HEK293T cell membranes assessed as covalent blockage of binding site at 50 nM measured after 120 mins by [3H]CGP12177 binding based radioligand depletion assay relative to control
Homo sapiens [15] = species: Homo sapiens; assay: Covalent binding affinity to human beta2 adrenoceptor H2.64C mutant expressed in HEK293T cell membranes assessed as covalent blockage of binding site at 50 nM measured after 30 mins by [3H]CGP12177 binding based radioligand depletion assay relative to control
Homo sapiens [16] = species: Homo sapiens; assay: Covalent binding affinity to human beta2 adrenoceptor H2.64C mutant expressed in HEK293T cell membranes assessed as covalent blockage of binding site at 50 nM measured after 120 mins by [3H]CGP12177 binding based radioligand depletion assay relative to control
Homo sapiens [17] = species: Homo sapiens; assay: Covalent binding affinity to human beta2 adrenoceptor H2.64C mutant expressed in HEK293T cell membranes assessed as covalent blockage of binding site at 1 nM measured after 15 mins by [3H]CGP12177 binding based radioligand depletion assay relative to control
Homo sapiens [18] = species: Homo sapiens; assay: Covalent binding affinity to human beta2 adrenoceptor H2.64C mutant expressed in HEK293T cell membranes assessed as covalent blockage of binding site at 1 nM measured after 90 mins by [3H]CGP12177 binding based radioligand depletion assay relative to control
Homo sapiens [19] = species: Homo sapiens; assay: Covalent binding affinity to human beta2 adrenoceptor H2.64C mutant expressed in HEK293T cell membranes assessed as covalent blockage of binding site at 80 nM measured after 30 mins by [3H]CGP12177 binding based radioligand depletion assay relative to control
Homo sapiens [20] = species: Homo sapiens; assay: Covalent binding affinity to human beta2 adrenoceptor H2.64C mutant expressed in HEK293T cell membranes assessed as covalent blockage of binding site measured after 15 mins by [3H]CGP12177 binding based radioligand depletion assay relative to control

Sequence of Beta-1 adrenergic receptor (P34971 whole entry): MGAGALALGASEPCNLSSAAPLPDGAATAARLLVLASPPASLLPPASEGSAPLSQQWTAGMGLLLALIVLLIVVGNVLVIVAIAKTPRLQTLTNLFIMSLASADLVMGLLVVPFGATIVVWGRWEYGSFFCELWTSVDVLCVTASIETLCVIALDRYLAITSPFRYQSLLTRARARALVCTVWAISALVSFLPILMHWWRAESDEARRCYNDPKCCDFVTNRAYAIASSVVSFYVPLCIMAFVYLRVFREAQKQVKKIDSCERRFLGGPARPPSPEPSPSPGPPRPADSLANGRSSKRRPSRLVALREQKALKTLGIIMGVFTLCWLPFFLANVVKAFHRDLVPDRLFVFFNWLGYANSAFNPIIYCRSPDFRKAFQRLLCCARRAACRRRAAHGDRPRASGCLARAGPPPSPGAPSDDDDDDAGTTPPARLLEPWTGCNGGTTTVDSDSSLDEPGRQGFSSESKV
Sequence of Beta-2 adrenergic receptor (P07550 whole entry): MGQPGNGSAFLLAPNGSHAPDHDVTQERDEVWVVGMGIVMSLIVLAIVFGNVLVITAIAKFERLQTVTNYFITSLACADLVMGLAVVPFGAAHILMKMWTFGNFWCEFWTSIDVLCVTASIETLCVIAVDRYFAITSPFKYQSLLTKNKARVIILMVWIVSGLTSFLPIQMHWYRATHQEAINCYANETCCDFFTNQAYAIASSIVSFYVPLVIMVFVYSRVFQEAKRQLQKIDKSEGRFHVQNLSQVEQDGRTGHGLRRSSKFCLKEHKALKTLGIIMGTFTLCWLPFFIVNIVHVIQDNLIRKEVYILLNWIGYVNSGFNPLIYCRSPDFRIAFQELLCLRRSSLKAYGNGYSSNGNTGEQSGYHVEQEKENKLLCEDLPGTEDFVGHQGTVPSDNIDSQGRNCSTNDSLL

Compound	Ratio Ki [1]	Ki [2] [nM]	Ki [3] [nM]	Ki [4] [nM]	also measured
COc1cc(CCNC[C@@H](O)COc2cccc3ccccc23)ccc1OCCCSSCCN	0.033	33	1.1	1.2	
COCCc1ccc(OC[C@H](O)CNCCc2ccc(OCCSSCCN)c(OC)c2)cc1	1.8	740	1300	66	
Cn1cc(C(F)(F)F)nc1-c1ccc(OC[C@@H](O)CNCCOc2ccc(OCCCSSCCN)c(C(N)=O)c2)cc1	20	71	1400		Activity (Homo sapiens [5]): 53 to 67%; KiH (Mus musculus [6]): 3.1 nM; KiL (Mus musculus [6]): 480 nM; Activity (Mus musculus [7]): 53 to 67%; KiH (Homo sapiens [8]): 77 nM; KiL (Homo sapiens [8]): 3.6 µM
COc1cc(CCNC[C@H](O)COc2cccc3ccccc23)ccc1OCCCSSCCN	0.066	1.1	0.073	0.18	Activity (Homo sapiens [9]): 100%; Activity (Homo sapiens [10]): 77 to 92%
COc1cc(CCNC[C@H](O)COc2ccc(COCCOC(C)C)cc2)ccc1OCCSSCCN	20	2.6	51	0.26	Activity (Homo sapiens [11]): < 100%; Activity (Homo sapiens [12]): 84 to 92%; Ki [13]: 2 nM; Activity (Mus musculus [14]): 64 to 76%
COCCc1ccc(OC[C@@H](O)CNCCc2ccc(OCCCSSCCN)c(OC)c2)cc1	0.91	22	20	1.5	Activity (Homo sapiens [15]): 100%; Activity (Homo sapiens [16]): 100%
COc1cc(CCNC[C@H](O)COc2ccc(-c3nc(C(F)(F)F)cn3C)cc2)ccc1OCCSSCCN	15	150	2200		Activity (Homo sapiens [17]): 84 to 92%; Activity (Homo sapiens [18]): < 100%; KiH (Mus musculus [6]): 0.56 nM; KiL (Mus musculus [6]): 280 nM; KiH (Homo sapiens [8]): 3.6 nM; KiL (Homo sapiens [8]): 2.5 µM; Activity (Mus musculus [14]): 64 to 76%
CC(C)NCC(O)COc1ccc(COCCOC(C)C)cc1 (racemic) [BISOPROLOL]		5.3			
Cn1cc(C(F)(F)F)nc1-c1ccc(OCC(O)CNCCOc2ccc(O)c(C(N)=O)c2)cc1 (centres undefined) [CGP-20712A]		1.4			
COc1cc(CCNC[C@@H](O)COc2cccc3ccccc23)ccc1OCCSSCCN	0.12	29	3.4	0.75	
COCCc1ccc(OC[C@@H](O)CNCCc2ccc(OCCSSCCN)c(OC)c2)cc1	2.1	27	57	3.8	Activity (Homo sapiens [19]): 100%
COc1cc(CCNC[C@H](O)COc2cccc3ccccc23)ccc1OCCSSCCN	0.33	0.49	0.16	0.083	Activity (Homo sapiens [9]): 100%; Activity (Homo sapiens [10]): 77 to 92%
COCCc1ccc(OC[C@H](O)CNCCc2ccc(OCCCSSCCN)c(OC)c2)cc1	1.5	220	320	26	
COc1cc(CCNC[C@H](O)c2ccc(O)c(O)c2)ccc1OCCSSCCN					Activity (Homo sapiens [20]): 71%
Cn1cc(C(F)(F)F)nc1-c1ccc(OC[C@@H](O)CNCCOc2ccc(OCCSSCCN)c(C(N)=O)c2)cc1	41	49	2000		Activity (Homo sapiens [5]): 79%; KiH (Mus musculus [6]): 0.071 nM; KiL (Mus musculus [6]): 270 nM; Activity (Mus musculus [7]): 74%; KiH (Homo sapiens [8]): 36 nM; KiL (Homo sapiens [8]): 8.4 µM
COCCc1ccc(OCC(O)CNC(C)C)cc1 (racemic) [METOPROLOL]		49			
